Experimental data as given in patent publication US9775844B2, “Heterocyclic compounds and uses thereof” (Infinity Pharmaceuticals, Inc., priority 2014, dated 2017).
Like-named read-outs stand apart in the source and are kept apart here.

Tests used:
[1] = Pharmacokinetics in rodent and non-rodent animal species; type: in vivo
Excerpt: (§1) These properties indicate the compound's suitability for in vivo administration.

[2] = Unbound concentrations in tumor and plasma, LLC model, 12 days daily oral administration; type: in vivo, mouse; conditions: Plasma, 12 days daily oral administration in NMP solution, read-out: Free Conc
Excerpt: Below is a table of details:

[3] = tested on: CXCL12-induced pAKT in T-cells; experiment: CXCL12-induced pAKT assay in T-cells; type: cell-based, human; conditions: FIG. 9
Excerpt: There was a tight correlation between the EC50s observed in the CXCL12-induced pAKT assay and the T-cell migration assay.

[4] = tested on: IL-8 induced neutrophil migration; experiment: IL-8 driven murine air pouch model; conditions: mouse air pouch; BB 0.1-3 mg/kg, AA 10-50 mg/kg
[5] = tested on: collagen induced arthritis; experiment: Rat collagen induced arthritis (CIA) model; type: in vivo
[6] = Pharmacokinetics in monkey, oral; type: in vivo; conditions: 5 mg/kg oral
Excerpt: (§2) Compound BB's oral exposure is high in rat, dog and monkey. Good oral bioavailability and low clearance in rodent and non-rodent animal species results in high oral exposure.

[7] = tested on: LPS induced neutrophil influx in bronchoalveolar lavage fluid; experiment: LPS-induced neutrophilia, oral administration; type: in vivo; conditions: rat, p.o., 4 hours post-LPS challenge, dose dependent
Method: This study also includes assessment of the exposure to the compounds in plasma and lung tissues.
Ref C is budesonide p.o. The compound was administered p.o. and about 1 hour later, LPS was administered intra-tracheally and plasma was collected. After about 5 hours, plasma and bronchoalveolar lavage samples were collected.

[8] = Stability in simulated gastric fluid; type: physicochemical; conditions: 38°
Excerpt: (§3) The phyiscochemical properties of Compound BB are drug-like, and suitable for use of the compound as a drug.

[9] = Mouse pharmacokinetics, oral single and repeat dose; conditions: in vivo, 10 mg/kg in NMP solution, read-out: Mouse PK AUClast @ 10 mg/kg in NMP solution
Cytochrome P450 isoforms = experiment: Cytochrome P450 inhibition; type: in vitro ADME
Excerpt: as §1

[10] = In vitro toxicology studies
pKa = type: physicochemical
Excerpt: as §3

Cyp = Cyp Induction (activity and mRNA); type: in vitro ADME
MC38 tumor cells = experiment: MC38 colon cancer model; type: in vivo, mouse
Method: In this model, a syngeneic colon cancer cell line is run subcutaneously. The experimental setup was as follows.
The cell injection volume was 0.05 ml per mouse. When tumors reached an average size of 80-100 mm^3, a pair match was made and treatment began. The tumor was measured by caliper biweekly.
The dosing volume was 5 mL/kg.
For all animals, blood was collected by terminal cardiac puncture under isoflurane anesthesia. The blood was processed for plasma. In addition, tumor samples were collected.
At study end, tumors were isolated, fixed in 10% neutral buffered formalin and embedded in paraffin for histologic analysis. […] T-cells within the tumor sections were identified utilizing a CD3-specific antibody via automated immunohistochemistry equipment (Ventana). Once stained, slides were digitalized via Aperio slide scanning equipment. Next, stained tumor sections were quantified via Definians software to assess the percentage of CD3 positive cells within each tumor.

TMD8 cell line = experiment: Combination isobologram in TMD8 cell line; type: cell-based; conditions: combination of Compound AA and Compound BB
[11] = tested on: RANKL driven differentiation of osteoclasts from bone marrow macrophages; experiment: Osteoclast differentiation assay (TRAP staining); type: cell-based, mouse; conditions: FIG. 17
Method: Bone Marrow Derived Macrophages as Osteoclast Progenitors: Long bones from young C57B6 mice were harvested and bone marrow was extruded by gentle lavage of the bone marrow cavities with a 28 gage needle. The cells were screened, and red blood cells were removed using red blood cell lysis buffer (Sigma). Bone marrow cells were differentiated to macrophages using 20 ng/ml mouse MCSF (RnD systems) for 3 days (RPMI and 20% FCS). The cell were washed with PBS, and lifted with Accutase for 10 minutes.
Osteoclast Differentiation Assay: The bone marrow macrophage cells were plated at 150,000 cells per well in a 96 well plate in a MEM 10% FCS. […] Then 25 ng/ml mouse MCSF with or without mouse RANKL (100 ng/ml, RnD systems) was added for 6 days. Media changes (including drugs) were done at day 3 and day 5. The cells were then fixed and stained with the tartrate resistant acid phosphatase (TRAP) assay kit from Sigma according to the manufactures instructions. TRAP positive cells (osteoclasts and cells undergoing an osteoclastic differentiation) in a transect of the triplicate wells (at 20× […]) were manually counted by going through the widest part of each well.

[12] = Mouse pharmacokinetics, oral single and repeat dose; type: in vivo; conditions: female mice, 2, 7.5, 15 mg/kg PO
Method: Animals were weighed daily prior to dosing. […] On subsequent dosing days, the animals' condition was noted prior to dosing; the animals were observed within 4 hours of dosing, and at the end of the day.
Samples were collected at pre-dose 0.25, 0.5, 1, 2, 4, 6 and 24 h following the first dose on day 1 and pre-dose (trough), 0.25, 0.5, 1, 2, 4, 6 and 24 h following the final dose on day 3 Animals received a single oral dose daily for 3 consecutive days. Blood was collected by retro-orbital bleeding for all time points on day 1. All other blood sampling was collected by a cardiac puncture. Blood was collected into K2EDTA tubes and placed on wet ice. Within 15 min of collection, the sample was centrifuged at 10,000 rpm at 4° C. for 10 min in a bench top centrifuge and the plasma transferred to a new microcentrifuge tube.
A similar study was carried out using Compound 88. […] Below is a table that details the results for Compound 88: […]

tumor = experiment: Tumor growth, Compound BB alone and co-administered with 5-FU (FIG. 35); type: in vivo
[13] = Pharmacokinetics in rat, oral; type: in vivo
Excerpt: as §2

4T1 breast cancer = experiment: Subcutaneous 4T1 breast cancer model; type: in vivo

With `C[C@H](NC(=O)c1c(N)nn2cccnc12)c1cc2cccc(C#Cc3cnn(C)c3)c2c(=O)n1-c1ccccc1` [Compound BB] as the compound, how does the clearance ([1]; in vivo) read?
Its clearance is “low clearance”.

And the half-life in vivo ([1]; in vivo)?
The half-life in vivo was “long half-life”.

And the volume of distribution ([1]; in vivo)?
The volume of distribution was “high volume of distribution”.

What about the oral bioavailability ([1]; rodent and non-rodent animal species) of the same compound?
The oral bioavailability was “high oral bioavailability”.

What about the concentration at 2 h ([2]; C57 Albino, mouse, 3 mg/kg, 2 h) of the same compound?
Its concentration at 2 h is 25.9 nM.

What about the concentration at 2 h ([2]; C57 Albino, mouse, 7.5 mg/kg, 2 h) of the same compound?
Its concentration at 2 h is 99 nM.

And the concentration at 2 h ([2]; C57 Albino, mouse, 15 mg/kg, 2 h)?
Its concentration at 2 h is 157 nM.

What about the concentration at 2 h ([2]; 3 mg/kg, Trough) of the same compound?
Its concentration at 2 h is 0.75 nM.

And the concentration at 2 h ([2]; 7.5 mg/kg, Trough)?
The concentration at 2 h was 8.99 nM.

And the concentration at 2 h ([2]; 15 mg/kg, Trough)?
The concentration at 2 h was 8.39 nM.

And the “inhibition of CXCL12-induced pAKT in T-cells” value [3]?
The value was “inhibited CXCL12-induced pAKT in T-cells more strongly”.

And the “IL-8 induced neutrophil migration” value [4]?
Its value is “blocks IL-8 induced neutrophil migration”.

What about the “bone resorption score reduction” value ([5]; 0.5 mg/kg) of the same compound?
Its value is 25%.

And the “cartilage damage score reduction” value ([5]; 0.5 mg/kg)?
Its value is 28%.

What about the inflammation score reduction ([5]; 0.5 mg/kg) of the same compound?
Its inflammation score reduction is 27%.

And the pannus score reduction ([5]; 0.5 mg/kg)?
The pannus score reduction was 28%.

What about the “periosteal bone formation score reduction” value ([5]; 0.5 mg/kg) of the same compound?
The value was 52%.

And the “periosteal bone widths reduction” value ([5]; 0.5 mg/kg)?
The value was 47%.

And the “reduction in summed scores” value ([5]; 0.5 mg/kg, non-significant)?
The value was 31%.

What about the “reduction of scored parameters” value ([5]; 0.5 mg/kg, non-significant) of the same compound?
Its value is 27-52%.

And the “bone resorption score reduction” value ([5]; 1.5 mg/kg)?
Its value is 44%.

And the “cartilage damage score reduction” value ([5]; 1.5 mg/kg)?
The value was 45%.

And the inflammation score reduction ([5]; 1.5 mg/kg)?
Its inflammation score reduction is 36%.

What about the pannus score reduction ([5]; 1.5 mg/kg) of the same compound?
Its pannus score reduction is 44%.

What about the “periosteal bone formation score reduction” value ([5]; 1.5 mg/kg) of the same compound?
Its value is 52%.

What about the “periosteal bone widths reduction” value ([5]; 1.5 mg/kg) of the same compound?
The value was 50%.

And the “reduction in summed scores” value ([5]; 1.5 mg/kg, significant)?
The value was 42%.

And the “bone resorption score reduction” value ([5]; 5 mg/kg)?
The value was 65%.

What about the “cartilage damage score reduction” value ([5]; 5 mg/kg) of the same compound?
Its value is 59%.

What about the inflammation score reduction ([5]; 5 mg/kg) of the same compound?
Its inflammation score reduction is 57%.

And the pannus score reduction ([5]; 5 mg/kg)?
The pannus score reduction was 71%.

What about the “periosteal bone formation score reduction” value ([5]; 5 mg/kg) of the same compound?
The value was 82%.

And the “periosteal bone widths reduction” value ([5]; 5 mg/kg)?
The value was 82%.

And the “reduction in summed scores” value ([5]; 5 mg/kg, significant)?
The value was 64%.

What about the “reductions in all scores” value ([5]; 5 mg/kg, significant) of the same compound?
Its value is 57-82%.

What about the mean ankle diameter ([5]; day 9 to day 17, FIG. 1) of the same compound?
Its mean ankle diameter is “therapeutic effects”.

What about the “oral exposure (plasma concentrations within 24 hours)” value [6] of the same compound?
The value was “high”.

What about the “neutrophil in bronchoalveolar lavage fluid (BALF)” value [7] of the same compound?
The value was “reduced neutrophil”.

What about the “stability in simulated gastric fluid” value [8] of the same compound?
The value was over 4 h.

What about the AUC(0-t) [9] of the same compound?
The AUC(0-t) was 83700 ng·h/mL.

What about the CYP inhibition (Cytochrome P450 isoforms) of the same compound?
The CYP inhibition was “does not substantially inhibit CYP”.

And the “reversible inhibition of main Cytochrome P450 isoforms” value (Cytochrome P450 isoforms)?
Its value is “low potential for reversible inhibition”.

What about the “Time dep Cyp Inhibition @ 10 uM” value (Cytochrome P450 isoforms; time dependent, 10 uM) of the same compound?
The value was “Neg”.

What about the “toxicity expected from in vitro toxicology studies” value [10] of the same compound?
The value was “very low toxicity”.

And the pKa (pKa)?
Its pKa is “no ionization from pH 3-10”.

What about the “Cyp Induction @ 10 uM” value (Cyp) of the same compound?
The value was “Neg (activity and mRNA)”.

What about the “intratumoral CD3+ T cells” value (MC38 tumor cells; MC38 tumors vs vehicle, IHC) of the same compound?
Its value is “significantly more intratumoral CD3+T cells”.

And the “tumor growth, MC38 colon cancer model” value (MC38 tumor cells; monotherapy, FIG. 29A)?
Its value is “significantly inhibited tumor growth”.

What about the “combination effect (isobologram)” value (TMD8 cell line) of the same compound?
Its value is “synergistic effect”.

And the “RANKL driven differentiation of osteoclasts (TRAP positive cells)” value [11]?
The value was “prevents RANKL driven differentiation of osteoclasts”.

And the “stability in serum (unbound plasma concentration time course)” value [12]?
Its value is “good stability in serum”.

And the tumor growth (tumor; Compound BB alone)?
Its tumor growth is “achieves a reduction in tumor growth”.

What about the tumor growth (tumor; co-administration of Compound BB and 5-FU) of the same compound?
The tumor growth was “achieves a further reduction”.

And the “oral exposure (plasma concentrations within 24 hours)” value ([13]; rat, 7.5 mg/kg oral)?
Its value is “high”.

What about the “dose-exposure proportionality (AUC 0-last)” value ([13]; rats, oral 10, 25, and 100 mg/kg) of the same compound?
Its value is “good dose-exposure proportionality”.

And the single agent activity (4T1 breast cancer)?
Its single agent activity is “demonstrated single agent activity”.

What about the tumor growth (4T1 breast cancer; co-administration with docetaxel, paclitaxel, or 5-FU) of the same compound?
Its tumor growth is “achieved a further reduction in tumor growth”.
